The record followed here is publication PMC10436262, “Structure-Based Design of Inhibitors of the m^6A-RNA Writer Enzyme METTL3” (ACS Bio & Med Chem Au, 2023).

Several values for one entry are separate records, joined by “and”; a condition that tells them apart may be missing. Equal values may be shown once. Read-outs that look alike come from different tables or passages of the source.

In the assay the target is T1, METTL3/METTL14 (Homo sapiens, UniProt Q86U44).
T1 construct: made in house; host or cells: Sf9 insect cells (baculovirus)
Description: METTL3 enzymatic inhibition assay by homogeneous time-resolved fluorescence (HTRF). Type of assay: biochemical. As to conditions: for IC50: HTRF assay; for fold improvement in affinity (IC50) vs compound 4: relative to reference compound 4; for S/R Ratio: ratio of IC50 of S isomer to R isomer. Here is the method: Compound potencies were evaluated by using a previously reported METTL3 inhibition assay. […] Tested compounds that inhibit METTL3 decrease the m^6A level and thus reduce the HTRF signal. The biochemical assay was performed, as described previously.[19] The IC50 values derived from fitting a dose–response curve to the data using nonlinear regression. The IC50 values are given as an average of at least two independent measurements for each compound in the text.
For orientation: TR-FRET usually uses a lanthanide donor and a delayed reading to cut background.

Where [1] appears, read: racemic mixture, read-out: IC50.
The mark [2] stands for this setting: R isomer, read-out: IC50 (µM) R.
Where [3] appears, read: S isomer, read-out: IC50 (µM) S.

T1 sequence (Q86U44 whole entry): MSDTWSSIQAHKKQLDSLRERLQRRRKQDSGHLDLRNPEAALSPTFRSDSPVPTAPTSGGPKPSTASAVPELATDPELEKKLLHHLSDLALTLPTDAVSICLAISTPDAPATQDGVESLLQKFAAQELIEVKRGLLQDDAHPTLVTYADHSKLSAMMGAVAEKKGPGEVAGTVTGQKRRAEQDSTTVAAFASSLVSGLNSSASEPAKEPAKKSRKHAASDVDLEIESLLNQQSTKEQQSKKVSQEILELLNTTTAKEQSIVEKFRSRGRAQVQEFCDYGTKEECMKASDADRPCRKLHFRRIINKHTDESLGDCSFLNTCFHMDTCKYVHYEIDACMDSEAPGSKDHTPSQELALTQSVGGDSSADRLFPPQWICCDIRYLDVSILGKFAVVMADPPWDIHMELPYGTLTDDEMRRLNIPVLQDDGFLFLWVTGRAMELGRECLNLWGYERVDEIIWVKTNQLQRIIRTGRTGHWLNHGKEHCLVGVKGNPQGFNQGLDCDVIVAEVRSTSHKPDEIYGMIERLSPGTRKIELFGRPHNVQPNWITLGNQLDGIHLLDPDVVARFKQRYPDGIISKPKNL
T1 sequence (Q9HCE5 whole entry partner): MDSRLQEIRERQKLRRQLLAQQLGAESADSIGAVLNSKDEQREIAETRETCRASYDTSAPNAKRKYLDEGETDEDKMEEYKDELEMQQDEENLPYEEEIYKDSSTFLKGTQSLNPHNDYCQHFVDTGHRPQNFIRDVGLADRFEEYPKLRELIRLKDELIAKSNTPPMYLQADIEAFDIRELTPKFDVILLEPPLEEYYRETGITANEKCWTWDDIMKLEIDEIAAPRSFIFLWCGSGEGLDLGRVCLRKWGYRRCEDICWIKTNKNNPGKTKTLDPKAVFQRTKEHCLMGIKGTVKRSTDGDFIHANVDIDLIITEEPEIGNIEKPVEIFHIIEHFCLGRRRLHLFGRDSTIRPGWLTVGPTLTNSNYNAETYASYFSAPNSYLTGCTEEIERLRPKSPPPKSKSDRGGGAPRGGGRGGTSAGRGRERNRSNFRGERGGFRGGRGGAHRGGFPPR

Take `CC1(C)CCN(Cc2ccc(C(=O)NCC3(O)CCCN(c4cc(NCc5cccc6sccc56)ncn4)C3)cc2)CC1` (stereo not shown) [compound 10]: the “fold improvement in affinity (IC50) vs compound 4” value (“fold improvement … vs compound 4” for short) is reported as 10 fold. Moreover, the IC50 (commonly the concentration needed to halve the response being measured) under setting [1] came out at 0.82 µM.

With `CC(C)C1(O)CN(Cc2ccc(C(=O)NCC3(O)CCCN(c4cc(NCc5ccccc5)ncn4)C3)cc2)C1` (stereo not shown) [compound 23], the IC50 under setting [1] worked out at 15 µM.

Consider `CC1CCN(Cc2ccc(C(=O)NCC3(O)CCCN(c4cc(NCc5ccccc5)ncn4)C3)cc2)C2CCCCC12` (stereo not shown) [compound 41], for which, under setting [1], the IC50 is 12 µM.

With `CC1(C)CCN(Cc2ccc(C(=O)NCC3(O)CCCN(c4cc(NCc5ccccc5)ncn4)C3)cn2)CC1` (stereo not shown) [compound 45], the half-inhibitory concentration (IC50) under setting [1] came out at 10 µM.

With `CC(C)C1N(Cc2ccc(C(=O)NCC3(O)CCCN(c4cc(NCc5ccccc5)ncn4)C3)c(O)c2)CC12CCC2` (stereo not shown) [compound 50], under setting [1], the IC50 was determined as 0.27 µM.

In the case of `CNc1cc(N2CCCC(O)(CNC(=O)c3ccc(CN4CCC(C)(CN)CC4)cc3)C2)ncn1` (stereo not shown) [compound 8], the IC50 under setting [1] was 32 µM.

For `CC1(CCO)CCN(Cc2ccc(C(=O)NCC3(O)CCCN(c4cc(NCc5ccccc5)ncn4)C3)cc2)CC1` (stereo not shown) [compound 20], under setting [1], the half-maximal inhibitory concentration (IC50) is 17.6 µM.

As for `CC1(C)CCN(CCCCC(=O)NCC2(O)CCCN(c3cc(NCc4ccccc4)ncn3)C2)CC1` (stereo not shown) [compound 49], the half-inhibitory concentration (IC50) under setting [1] stood at 60 µM.

Turning to `CCCN(Cc1ccc(C(=O)NCC2(O)CCCN(c3cc(NCc4ccccc4)ncn3)C2)cc1)C1CCCCC1` (stereo not shown) [compound 38], under setting [1], the IC50 was greater than 10 µM.

Consider `CC1(C)CCN(Cc2ccc(C(=O)NCC3(O)CCCN(c4cc(NCc5cccc6nc[nH]c56)ncn4)C3)cc2)CC1` (stereo not shown) [compound 9], for which, under setting [1], the concentration for half-maximal inhibition (IC50) was determined as 2.1 µM.

`CNc1cc(N2CCCC(O)(CNC(=O)c3ccc(CN4CCC(C)CC4)cc3)C2)ncn1` (stereo not shown) [compound 3]: the IC50 under setting [1] stood at 16 µM.

`CSc1cc(CN2CCC(C)(C)CC2)ccc1C(=O)NCC1(O)CCCN(c2cc(NCc3ccccc3)ncn2)C1` (stereo not shown) [compound 44]: the IC50 under setting [1] is 1.1 µM.

As to `CC1(C)CCN(Cc2ccc(C(=O)NCC3(O)CCCN(c4cc(NCc5ccsc5)ncn4)C3)cc2)CC1` (stereo not shown) [compound 12], under setting [1], the IC50 was found to be 1.8 µM.

For `CC(C)CNCc1ccc(C(=O)NCC2(O)CCCN(c3cc(NCc4ccccc4)ncn3)C2)cc1` (stereo not shown) [compound 33], the IC50 under setting [1] came to 5.1 µM.

Regarding `CNc1cc(N2CCCC(O)(CNC(=O)c3ccc(CN4CCNCC4)cc3)C2)ncn1` (stereo not shown) [compound 5], under setting [1], the IC50 was 179 µM.

For `CNc1cc(N2CCCC(O)(CNC(=O)c3ccc(CN4CCC(C)(N)CC4)cc3)C2)ncn1` (stereo not shown) [compound 7], under setting [1], the IC50 is 42 µM.

Turning to `CC(F)C1CCN(Cc2ccc(C(=O)NCC3(O)CCCN(c4cc(NCc5ccccc5)ncn4)C3)cc2)CC1` (stereo not shown) [compound 21], the half-inhibitory concentration (IC50) under setting [1] is 23 µM.

Turning to `CC1(C)CCN(Cc2ccc(C(=O)NCC3(O)CCCN(c4cc(NC(C)(C)c5ccccc5)ncn4)C3)cc2)CC1` (stereo not shown) [compound 14], the half-inhibitory concentration (IC50) under setting [1] is 31 µM.

As for `CC1(C)CCN(Cc2ccc3nc(CC4(O)CCCN(c5cc(NCc6ccccc6)ncn5)C4)[nH]c3c2)CC1` (stereo not shown) [compound 47], under setting [1], the IC50 amounted to 2.9 µM.

With `CCC(CC)CNCc1ccc(C(=O)NCC2(O)CCCN(c3cc(NCc4ccccc4)ncn3)C2)cc1` (stereo not shown) [compound 28], the half-inhibitory concentration (IC50) under setting [1] worked out at 7.4 µM.

Regarding `CNc1cc(N2CCCC(O)(CNC(=O)c3ccc(CN4CCC(C)(C)CC4)cc3)C2)ncn1` (stereo not shown) [compound 4], the 50% inhibitory concentration (IC50) under setting [1] came to 8.2 µM. Further, the “fold improvement in affinity (IC50) vs compound 1” value (relative to hit compound 1) was 50 fold and 52.4 fold.

For `CC1(C)CCN(Cc2ccc(C(=O)NCC3(O)CCCN(c4cc(NCc5ccoc5)ncn4)C3)cc2)CC1` (stereo not shown) [compound 11], under setting [1], the IC50 was greater than 10 µM.

Take `CCC1CCN(Cc2ccc(C(=O)NCC3(O)CCCN(c4cc(NC)ncn4)C3)cc2)CC1` (stereo not shown) [compound 6]: under setting [1], the IC50 is 230 µM.

Regarding `CC1(F)CC12CCN(Cc1ccc(C(=O)NCC3(O)CCCN(c4cc(NCc5ccccc5)ncn4)C3)cc1)CC2` (stereo not shown) [compound 22], the 50% inhibitory concentration (IC50) under setting [1] was 23 µM.

As for `CCCCN(Cc1ccc(C(=O)NCC2(O)CCCN(c3cc(NCc4ccccc4)ncn3)C2)cc1)C1CCCC1` (stereo not shown) [compound 39], the IC50 under setting [1] was greater than 10 µM.

With `O=C(NCC1(O)CCCN(c2cc(NCc3ccccc3)ncn2)C1)c1ccc(CN2CCC3(CC2)CC3)cc1` (stereo not shown) [compound 17], the IC50 under setting [1] was 3.3 µM.

For `O=C(NCC1(O)CCCN(c2cc(NCc3ccccc3)ncn2)C1)c1ccc(CN2CCCCC2)cc1` (stereo not shown) [compound 40], the IC50 under setting [1] stood at 14 µM.

Consider `CC1(C)CCN(Cc2ccc(C(=O)NCC3(O)CCCN(c4cc(NCc5ccccc5)ncn4)C3)cc2)CC1` (stereo not shown) [compound 16], for which the “S/R Ratio” value is given as 5.9 and the “fold improvement … vs compound 4” value is recorded as 4.8 fold. Besides, the half-maximal inhibitory concentration (IC50) under setting [2] worked out at 1.2 µM. For the same molecule, the IC50 under setting [3] was 7.1 µM. In addition, under setting [1], the IC50 worked out at 1.7 µM. Further, the “fold difference in activity between R and S configurations” value (R more active than S) is listed as roughly 6 fold.

On to `CC(C)CCNCc1ccc(C(=O)NCC2(O)CCCN(c3cc(NCc4ccccc4)ncn3)C2)cc1` (stereo not shown) [compound 34], for which the IC50 under setting [1] is 17.7 µM.

`CC1(C)CCN(Cc2ccc(C(=O)NCC3(O)CCCN(c4cc(NCc5cccc(S(N)(=O)=O)c5)ncn4)C3)c(O)c2)CC1` (stereo not shown) [compound 52]: the IC50 under setting [1] was 0.3 µM.

Consider `O=C(NCC1(O)CCCN(c2cc(NCc3ccccc3)ncn2)C1)c1ccc(CN2CC3(CCC3)C2)cc1` (stereo not shown) [compound 29], for which the “S/R Ratio” value is reported as 2.5. In addition, the IC50 under setting [2] was found to be 0.53 µM. Besides, the IC50 under setting [3] worked out at 1.3 µM. The concentration for half-maximal inhibition (IC50) under setting [1] came out at 1.6 µM.

As for `O=C(NCC1(O)CCCN(c2cc(NCc3ccccc3)ncn2)C1)c1ccc(CN2CCCC3CCCCC32)cc1` (stereo not shown) [compound 42], the half-inhibitory concentration (IC50) under setting [1] worked out at 8.4 µM.

Take `CC1(C)CCN(Cc2ccc(C(=O)NCC3(O)CCCN(c4cc(NCc5cccc6ccccc56)ncn4)C3)cc2)CC1` (stereo not shown) [compound 15]: the “fold improvement … vs compound 4” value worked out at 10 fold. In addition, under setting [1], the IC50 amounted to 0.77 µM.

`CC1(C)CN(Cc2ccc(C(=O)NCC3(O)CCCN(c4cc(NCc5ccccc5)ncn4)C3)cc2)C1` (stereo not shown) [compound 27]: the concentration for half-maximal inhibition (IC50) under setting [1] was found to be 9.3 µM.

With `CNc1cc(N2CCCC(O)(CNC(=O)c3ccc(CN4CCCCC4)cc3)C2)ncn1` (stereo not shown) [compound 1], the IC50 under setting [1] came out at 430 µM.

`O=C(NCC1(O)CCCN(c2cc(NCc3ccccc3)ncn2)C1)c1ccc(CNCC2CCC2)cc1` (stereo not shown) [compound 36]: the IC50 under setting [1] is 5.2 µM.

Consider `CNC(=O)c1cccc(CNc2cc(N3CCCC(O)(CNC(=O)c4ccc(CN5CCC(C)(C)CC5)cc4O)C3)ncn2)c1` (stereo not shown) [compound 51], for which the IC50 under setting [1] is 0.19 µM.

Turning to `CCCCC1(C)CCN(Cc2ccc(C(=O)NCC3(O)CCCN(c4cc(NCc5ccccc5)ncn4)C3)cc2)CC1` (stereo not shown) [compound 19], the concentration for half-maximal inhibition (IC50) under setting [1] came out at 5.5 µM.

As to `O=C(NCC1(O)CCCN(c2cc(NCc3ccccc3)ncn2)C1)c1ccc(CN2CC3(CCCC3)C2)cc1` (stereo not shown) [compound 32], under setting [1], the concentration for half-maximal inhibition (IC50) was found to be 7.7 µM.

Regarding `CC1(C)CCN(Cc2ccc(N3CC4(CCN(c5cc(NCc6ccccc6)ncn5)CC4)OCC3=O)cn2)CC1` [compound 48], the half-maximal inhibitory concentration (IC50) under setting [1] is 5.1 µM.

In the case of `CCCCN(Cc1ccc(C(=O)NCC2(O)CCCN(c3cc(NCc4ccccc4)ncn3)C2)cc1)C1CCCCC1` (stereo not shown) [compound 26], the IC50 under setting [1] was greater than 10 µM.

With `CC(Nc1cc(N2CCCC(O)(CNC(=O)c3ccc(CN4CCC(C)(C)CC4)cc3)C2)ncn1)c1ccccc1` (stereo not shown) [compound 13], the IC50 under setting [1] was 12 µM.

Take `CCC1(C)CCN(Cc2ccc(C(=O)NCC3(O)CCCN(c4cc(NCc5ccccc5)ncn4)C3)cc2)CC1` (stereo not shown) [compound 18]: the IC50 under setting [1] came to 4.7 µM.

Consider `O=C(NCC1(O)CCCN(c2cc(NCc3ccccc3)ncn2)C1)c1ccc(CN2CC3(CCC3)C2C2CC2)cc1O` (stereo not shown) [compound 53], for which the IC50 under setting [1] was determined as 0.84 µM.
